Measurements: patent US20240197871A1, “COMBINATION OF A CAR T CELL THERAPY AND AN IMMUNOMODULATORY COMPOUND FOR TREATMENT OF LYMPHOMA” (Juno Therapeutics, Inc., priority 2021, published 2024)

Legend:
anti-CD19 CAR T cells [1] = test: Viability of anti-CD19 CAR T cells stimulated with anti-idiotypic antibody (live/dead dye); type: cell-based, human; settings: Day 3 of culture; 3 or 30 μg/mL anti-idiotypic antibody; three donors
Experimental: (§1) Anti-CD19 CAR-expressing T cell compositions were generated from three different healthy donors as described in Example 1. Prior to use, cryopreserved CD4+ and CD8+ engineered cell compositions were thawed and combined at approximately a 1:1 CD4:CD8 ratio.
(§2) Following incubation, stimulated CAR T cells were harvested, washed twice in media, and assessed.
Viability was assessed at Day 3 of culture by flow cytometry using a live/dead cell dye. As shown in FIG. 2A for the three donors (mean±SEM), the compounds had no effect on cell viability when stimulation was carried out either with 3 μg/mL of anti-idiotypic antibody (left panel) or with 30 μg/mL of anti-idiotypic antibody (right panel).

[2] = test system: Granta-519 lymphoma tumor spheroids; test: Concentration levels: tumor cell number during re-challenge, concurrent or rescue treatment; type: cell-based
Experimental: Different concentrations of Compound C were tested for their effects on cytolytic function of CAR T cells following chronic stimulation. CAR T cells were treated with various concentrations of Compound C either during or after chronic stimulation.
Anti-CD19 CAR-expressing T cells, produced as described in Example 1, were chronically stimulated as described in Example 3 (with Compound C present during chronic stimulation), then re-challenged with Granta-519 lymphoma tumor spheroids in the absence of Compound C (concurrent treatment group). In addition, anti-CD19 CAR-expressing T cells were chronically stimulated as described in Example 4 (with Compound C absent during chronic stimulation), then re-challenged with Granta-519 lymphoma tumor spheroids in the presence of Compound C (rescue treatment group). During re-challenge, cytolytic activity was assessed by tumor cell number at various times during co-culture with CAR-T cells.
In both treatment conditions, tumor cell number was reduced compared to control conditions for CAR T cells treated with Compound C at a 0.001 μM concentration. Also in both treatment groups, tumor cell number was higher compared to control conditions for CAR T cells treated with Compound C at 0.01 μM and 0.1 μM concentrations.

anti-CD19 CAR T cells [3] = test: Intracellular cytokine levels in stimulated anti-CD19 CAR T cells; type: cell-based, human; settings: 72 hours, 30 μg/mL anti-idiotypic antibody
Experimental: as §1, §2
Intracellular cytokine levels in CAR T cells that had been stimulated for 72 hours with 30 μg/mL of anti-idiotypic antibody were determined. To do so, supernatants were collected from the stimulated CAR T cells and were analyzed for interferon-γ (IFN-γ) and interleukin-2 (IL-2) content using a multiplex electrochemiluminescence assay. To stain for intracellular cytokines, including Perforin and Granzyme B, cells were fixed and permeabilized using a Foxp3/Transcription Factor Staining Buffer Set (Thermo Fisher Scientific). Intracellular cytokine levels of IFNγ, perforin, granzyme B, and IL-2 were then determined by flow cytometry. […] Log2 fold-change values greater than zero are indicated with a “+” in FIG. 2F. Similar results were observed when measuring the percentage of cells positive for the cytokines.

[4] = test system: Granta-519 lymphoma tumor spheroids; test: Chronic stimulation with concurrent treatment, re-challenge with tumor spheroids; type: cell-based
Experimental: To simulate conditions of chronic stimulation, anti-CD19 CAR-expressing T cells, produced as described in Example 1, were incubated with plate-bound CAR-specific anti-idiotypic antibody (see, e.g., WO2018/023100) and incubated at 37° C. for a period of six days. […] For instance, CAR T cells that were re-challenged with CD19+ tumor cells following the six-day stimulation had reduced IFNγ and IL-2 cytokine production (FIG. 3A) and reduced cytolytic function (FIG. 3B) compared to freshly thawed CAR T cells not subjected to the six-day stimulation.
The ability of Compound C to block or reduce this CAR T cell hypofunctionality following chronic stimulation was assessed. To do so, engineered CAR T cells were concurrently treated with Compound C, Compound 2, or a vehicle control during the six-day stimulation. Stimulated CAR T cells were then harvested, washed twice in media, and re-challenged with Granta-519 lymphoma tumor spheroids (that had been transduced with IncuCyte NucLight Red) in the absence of Compound C, after which cytolytic activity was assessed by loss of red fluorescence over time and averaged measurement of tumor spheroid size at various times following co-culture with CAR-T cells. Cytokine production, Ikaros expression, and gene expression of the CAR T Cells also were assessed.
FIGS. 3D and 3E show the volume of tumor spheroids co-cultured with CAR T cells that were stimulated in the presence of Compound C after chronic stimulation. As shown in FIG. 3D and FIG. 3E, cytolytic activity during re-challenge was improved by treatment with Compound C at a 1 nM concentration during stimulation (**** P<0.0001).

RL CD19+ tumor cells = test: Cytolytic function: co-culture of anti-CD19 CAR T cells with RL CD19+ tumor cells; type: cell-based; settings: E:T 1:1
Experimental: To do so, CAR T cells were plated on ploy-D-lysine plates. CD19+ tumor cells transduced with IncuCyte® NucLight Red (Essen BioScience Inc.) were then added to the CAR T cells in addition to Compound C or vehicle control. Tumor cell number was measured over multiple days.
Treatment with CAR T cells in combination with either immunomodulatory compound led to lower tumor cell numbers than did CAR T cells alone or the compounds alone.

O=C1CC[C@H](N2C(=O)c3cccc(NCc4ccc(CN5CC(N6CCOCC6)C5)cc4F)c3C2=O)C(=O)N1 [Compound C, (S)-2-(2,6-dioxopiperidin-3-yl)-4-((2-fluoro-4-((3-morpholinoazetidin-1-yl)methyl)benzyl)amino)isoindoline-1,3-dione]
cell viability (percentage of live CAR T cells) (anti-CD19 CAR T cells [1]): without affecting CAR T cell viability
tumor cell number compared to control conditions ([2]; concurrent treatment, 0.001 μM): reduced
tumor cell number compared to control conditions ([2]; concurrent treatment, 0.01 μM): higher
tumor cell number compared to control conditions ([2]; concurrent treatment, 0.1 μM): higher
tumor cell number compared to control conditions ([2]; rescue treatment, 0.001 μM): reduced
tumor cell number compared to control conditions ([2]; rescue treatment, 0.01 μM): higher
tumor cell number compared to control conditions ([2]; rescue treatment, 0.1 μM): higher
intracellular expression of effector cytokines (IFNγ, perforin, granzyme B), fold change in MFI vs vehicle (anti-CD19 CAR T cells [3]): increased production of certain cytokines
IFNγ production in supernatant five days after re-challenge ([4]; 1 nM concurrently during chronic stimulation, P<0.0001): improved IFNγ production
cytolytic activity during re-challenge (tumor spheroid volume) ([4]; 1 nM during six-day chronic stimulation (concurrent), P<0.0001): improved
IFNγ production in supernatant five days after re-challenge ([4]; 10 nM during chronic stimulation, P<0.001, lesser extent than 1 nM): increased IFNγ production
tumor size at day 9 of co-culture ([4]; 10 nM during six-day chronic stimulation (concurrent), P<0.05, lesser extent than 1 nM): reduced tumor size
RL tumor cell number vs CAR T cells alone or compound alone (RL CD19+ tumor cells; compound at 0.001 μM with anti-CD19 CAR T cells): lower
RL tumor cell number vs CAR T cells alone or compound alone (RL CD19+ tumor cells; compound at 0.01 μM with anti-CD19 CAR T cells): lower
RL tumor cell number vs CAR T cells alone or compound alone (RL CD19+ tumor cells; compound at 0.1 μM with anti-CD19 CAR T cells): lower
